In US12157730B2, “Heteroaryl derivative, method for producing same, and pharmaceutical composition comprising same as effective component” (VORONOI INC., priority 2019, dated 2024):

Molecular target: T1, Ba/F3 cell EGFR Exon20 ins NPH (Homo sapiens, UniProt P00533, INS773NPH)
T1 construct: expressed in transfected cells; host or cells: Ba/F3
Assay: Ba/F3 cell proliferation suppression, EGFR Exon20 ins NPH
Format: cell-based
Settings: GI50 class; Ba/F3 cell line with NPH inserted at Exon20 of EGFR; 72 hours
Outline: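 Cells (3000–5000/well) plated 24 h before compound, 12-point 3-fold dilutions at 0.3 nM to 50 um final; Ba/F3 lines grown with 5 ng/ml IL-3. Viability by CellTiter-Glo luminescence after 72 h, growth ratio vs control, GI50 from curves; triplicate.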

SMILES: C=CC(=O)Nc1cc(Nc2cc(N3OCC[C@@H]3c3ccc(F)c(F)c3F)ncn2)c(OC)cc1N1CC[C@H](N2CCOCC2)C1 [compound 624, N-(4-methoxy-2-((S)-3-morpholinopyrolidine-1-yl)-5-((6-((R)-3-(2,3,4-trifluorophenyl)isoxazolidine-2-yl)pyrimidine-4-yl)amino)phenyl)acrylamide]
- Ba/F3 (NPH) Activity: C (500 nM ≤ GI50 < 5000 nM)

SMILES: C=CC(=O)Nc1cc(Nc2cc(N3OCC[C@@H]3c3cccc(F)c3F)ncn2)c(OC)cc1N1CCC(N2CCN(C)CC2)CC1 [compound 921, N-(5-((6-((R)-3-(2,3-difluorophenyl)isoxazolidine-2-yl)pyrimidine-4-yl)amino)-4-methoxy-2-(4-(4-methylpiperazine-1-yl)piperidine-1-yl)phenyl) acrylamide]
- Ba/F3 (NPH) Activity: A (GI50 < 50 nM)

SMILES: C=CC(=O)Nc1cc(Nc2cc(N3OCC[C@H]3c3c(F)cccc3F)ncn2)c(OC)cc1N1CCC(N2CC[C@H](N(C)C)C2)CC1 [compound 315, N-(5-((6-((S)-3-(2,6-difluorophenyl)isoxazolidine-2-yl)pyrimidine-4-yl)amino)-2-(4-((S)-3-(dimethylamino)pyrolidine-1-yl)piperidine-1-yl)-4-methoxyphenyl) acrylamide]
- Ba/F3 (NPH) Activity: C (500 nM ≤ GI50 < 5000 nM)

SMILES: C=CC(=O)Nc1cc(Nc2cc(N3OCC[C@@H]3c3ccc(C)nc3)ncn2)c(OC)cc1N(C)CCN(C)C [Example 36, N-(2-((2-(dimethylamino)ethyl)(methyl)amino)-4-methoxy-5-((6-((R)-3-(6-methylpyridine-3-yl)isoxazolidine-2-yl)pyrimidine-4-yl)amino)phenyl) acrylamide]
- Ba/F3 (NPH) Activity: A (GI50 < 50 nM)

SMILES: C=CC(=O)Nc1cc(Nc2cc(N3OCC[C@@H]3c3cccc(Cl)c3F)ncn2)c(OC)cc1N1CCC(N2CCCN(C3CC3)CC2)CC1 [compound 358, N-(5-((6-((R)-3-(3-chloro-2-fluorophenyl)isoxazolidine-2-yl)pyrimidine-4-yl)amino)-2-(4-(4-cyclopropyl-1,4-diazepane-1-yl)piperidine-1-yl)-4-methoxyphenyl) acrylamide]
- Ba/F3 (NPH) Activity: A (GI50 < 50 nM)

SMILES: C=CC(=O)Nc1cc(Nc2cc(N3OCC[C@@H]3c3ccc4ccccc4c3)ncn2)c(OC)cc1N1CCC(N2C[C@H]3C[C@@H]2CO3)CC1 [compound 557, N-(2-(4-((1R,4R)-2-oxa-5-azabicyclo[2.2.1]heptane-5-yl)piperidine-1-yl)-4-methoxy-5-((6-((R)-3-(naphthalene-2-yl)isoxazolidine-2-yl)pyrimidine-4-yl)amino)phenyl)acrylamide]
- Ba/F3 (NPH) Activity: B (50 nM ≤ GI50 < 500 nM)

SMILES: C=CC(=O)Nc1cc(Nc2cc(N3OCC[C@@H]3c3cccc(C(F)(F)F)c3)ncn2)c(OC)cc1N1CCC(N2CCN(C)CC2)CC1 [compound 453, N-(4-methoxy-2-(4-(4-methylpiperazine-1-yl)piperidine-1-yl)-5-((6-((R)-3-(3-(trifluoromethyl)phenyl)isoxazolidine-2-yl)pyrimidine-4-yl)amino)phenyl)acrylamide]
- Ba/F3 (NPH) Activity: A (GI50 < 50 nM)

SMILES: C=CC(=O)Nc1cc(Nc2cc(N3OCC[C@@H]3c3cccc(Cl)c3F)ncn2)c(OC)cc1N(C)CCN(C)C [compound 746, N-(5-((6-((R)-3-(3-chloro-2-fluorophenyl)isoxazolidine-2-yl)pyrimidine-4-yl)amino)-2-((2-(dimethylamino)ethyl)(methyl)amino)-4-methoxyphenyl) acrylamide]
- Ba/F3 (NPH) Activity: A (GI50 < 50 nM)

SMILES: C=CC(=O)Nc1cc(Nc2cc(N3OCC[C@@H]3c3ccc(Cl)c(Cl)c3)ncn2)c(OC)cc1N(C)CCN(C)C [compound 669, N-(5-((6-((R)-3-(3,4-dichlorophenyl)isoxazolidine-2-yl)pyrimidine-4-yl)amino)-2-((2-(dimethylamino)ethyl)(methyl)amino)-4-methoxyphenyl) acrylamide]
- Ba/F3 (NPH) Activity: A (GI50 < 50 nM)

SMILES: C=CC(=O)Nc1cc(Nc2cc(N3OCC[C@@H]3c3ccc(F)cc3F)ncn2)c(OC)cc1N1CCC(N2CCN(C3COC3)CC2)CC1 [Example 197, N-(5-((6-((R)-3-(2,4-difluorophenyl)isoxazolidine-2-yl)pyrimidine-4-yl)amino)-4-methoxy-2-(4-(4-(oxetane-3-yl)piperazine-1-yl)piperidine-1-yl)phenyl)acrylamide]
- Ba/F3 (NPH) Activity: A (GI50 < 50 nM)

SMILES: C=CC(=O)Nc1cc(Nc2cc(N3OCC[C@@H]3c3cccc(C(F)(F)F)c3)ncn2)c(OC)cc1N1CCC(N(C)C)CC1 [compound 451, N-(2-(4-(dimethlamino)piperidine-1-yl)-4-methoxy-5-((6-((R)-3-(3-(trifluoromethyl)phenyl)isoxazolidine-2-yl)pyrimidine-4-yl)amino)phenyl) acrylamide]
- Ba/F3 (NPH) Activity: A (GI50 < 50 nM)

SMILES: C=CC(=O)Nc1cc(Nc2cc(N3OCC[C@@H]3c3cc(F)cc(Cl)c3)ncn2)c(OC)cc1N1CCN(C2COC2)CC1 [compound 597, N-(5-((6-((R)-3-(3-chloro-5-fluorophenyl)isoxazolidine-2-yl)pyrimidine-4-yl)amino)-4-methoxy-2-(4-(oxetane-3-yl)piperazine-1-yl)phenyl) acrylamide]
- Ba/F3 (NPH) Activity: A (GI50 < 50 nM)

SMILES: C=CC(=O)Nc1cc(Nc2cc(N3OCC[C@@H]3c3ccc(F)cc3)ncn2)c(OC)cc1N1CCN(C)CC1 [compound 785, N-(5-((6-((R)-3-(4-fluorophenyl)isoxazolidine-2-yl)pyrimidine-4-yl)amino)-4-methoxy-2-(4-methylpiperazine-1-yl)phenyl)acrylamide]
- Ba/F3 (NPH) Activity: A (GI50 < 50 nM)

SMILES: C=CC(=O)Nc1cc(Nc2cc(N3OCC[C@@H]3c3ccc(F)cc3)ncn2)c(OC)cc1N1CCC(N2C[C@@H]3C[C@H]2CO3)CC1 [compound 812, N-(2-(4-((1S,4S)-2-oxa-5-azabicyclo [2.2.1]heptane-5-yl)piperidine-1-yl)-5-((6-((R)-3-(4-fluorophenyl)isoxazolidine-2-yl)pyrimidine-4-yl)amino)-4-methoxyphenyl) acrylamide]
- Ba/F3 (NPH) Activity: A (GI50 < 50 nM)

SMILES: C=CC(=O)Nc1cc(Nc2cc(N3OCC[C@@H]3Cc3ccccc3)ncn2)c(OC)cc1N(C)CCOC [compound 953, N-(5-((6-((S)-3-benzylisoxazolidine-2-yl)pyrimidine-4-yl)amino)-4-methoxy-2-((2-methoxyethyl) (methyl)amino)phenyl) acrylamide]
- Ba/F3 (NPH) Activity: B (50 nM ≤ GI50 < 500 nM)

SMILES: C=CC(=O)Nc1cc(Nc2cc(N3OCC[C@@H]3Cc3cc(F)cc(F)c3)ncn2)c(OC)cc1N1CCC(N2C[C@H]3C[C@@H]2CO3)CC1 [compound 1034, N-(2-(4-((1R,4R)-2-oxa-5-azabicyclo [2.2.1]heptane-5-yl)piperidine-1-yl)-5-((6-((S)-3-(3,5-difluorobenzyl)isoxazolidine-2-yl)pyrimidine-4-yl)amino)-4-methoxyphenyl) acrylamide]
- Ba/F3 (NPH) Activity: A (GI50 < 50 nM)

SMILES: C=CC(=O)Nc1cc(Nc2cc(N3OCC[C@@H]3c3ccc(F)cc3F)ncn2)c(OC)cc1N1CCC(N2CCN(CC)CC2)CC1 [compound 424, N-(5-((6-((R)-3-(2,4-difluorophenyl)isoxazolidine-2-yl)pyrimidine-4-yl)amino)-2-(4-(4-ethylpiperazine-1-yl)piperidine-1-yl)-4-methoxyphenyl) acrylamide]
- Ba/F3 (NPH) Activity: A (GI50 < 50 nM)
